Measured values as given in US20250009924A1, “Indane Derivatives for Malodor Counteraction” (Firmenich SA, priority 2015, published 2025).

How the values were obtained:
[1] = Binary mixtures of lily-of-the-valley odorants with malodor, perception of fecal and animal note; conditions: the fecal and animal note remains clearly perceptible
[2] = system: indole-responsive olfactory sensory neurons; test: Ca2+ imaging of olfactory sensory neurons, antagonist screening against indole; type: cell-based; conditions: 25 μM indole + 125 μM MOC compound as binary mixture; percentage of malodor-responsive OSN population inhibited by more than 10% (modulation values less than −10%)
Protocol: (§1) Identification of malodor-sensitive olfactory neurons was performed as previously described in WO 2014/210582. Identification of antagonist compounds that inhibit the response of malodor-sensitive olfactory neurons to the target malodor was performed according to Kajiya et al (2001) (K. Kajiya, et al in The Journal of Neuroscience, (2001) 21, 6018-6025).
(§2) Olfactory sensory neurons were stimulated with 25 μM indole (MO) and 125 μM MOC either alone or as a binary mixture. By comparing the peak value of the calcium-induced fluorescence ratio change induced by exposure to the target MO compound to that of the mixture of MO+MOC candidate, a “modulation value” was calculated. The larger the difference between the two peak values, the greater the magnitude of the modulation value. If the peak value for the MO was larger than that of the MO+MOC, the modulation value was negative, whilst the inverse produced positive modulation values. A modulation value was calculated for each cell responding to the positive-control stimulus forskolin (Pos) and the MO compound, but not to the negative-control buffer stimulus (Neg). For each candidate MOC compound, a baseline ‘modulation value’ was obtained by repeated stimulations of olfactory neurons with indole alone (left box plot in B, D, F). The percentage of target malodor-responsive cells with negative modulation values less than −10% was plotted on a bar chart. Population data are represented as box plots, where the interquartile range (25-75th percentiles) of olfactory sensory neuron modulation is contained within the box, with the median indicated by the black bar and the 95th percentile by the arms.
Olfactory sensory neurons were stimulated with 25 μM indole malodor and 125 μM candidate MOC compound as a binary mixture.

[3] = system: Skatole OSNs (olfactory sensory neurons); test: Ca2+ imaging of olfactory sensory neurons, antagonist screening against skatole; type: cell-based; conditions: 50 μM skatole + 250 μM MOC compound as binary mixture; percentage of malodor-responsive OSN population inhibited by more than 10%
Protocol: as §1, §2
Olfactory sensory neurons were stimulated with 50 μM skatole malodor and 250 μM candidate MOC compound as a binary mixture.

[4] = system: DMTS OSNs (olfactory sensory neurons); test: Ca2+ imaging of olfactory sensory neurons, antagonist screening against dimethyl trisulfide (DMTS); type: cell-based; conditions: 50 μM DMTS + 250 μM MOC compound as binary mixture; percentage of malodor-responsive OSN population inhibited by more than 10%
Protocol: as §1, §2
Olfactory sensory neurons were stimulated with 50 μM DMTS malodor and 250 μM candidate MOC compound as a binary mixture.

[5] = Air dilution olfactometry sensory panel, indole vs indole + compound; type: in vivo, human; parameters: key to Freshness score: linear labeled scale, no freshness to very fresh; key to Animal/Fecal/Tar score: linear labeled scale, no to very animal/fecal/tar; key to Pleasantness score: linear labeled scale, very unpleasant to very pleasant; conditions: for Freshness score / Pleasantness score / Animal/Fecal/Tar score: indole + compound at individualized iso-intense concentrations; for Freshness score: indole alone 2.2 ± 0.2; for Pleasantness score: indole alone 2.6 ± 0.2; for Animal/Fecal/Tar score: linear labeled scale, indole alone 6.9 ± 0.2; for Animal/Fecal/Tar Reduction: indole + compound vs indole alone, iso-intense levels
Protocol: Air dilution olfactometry was used to measure all psychophysical data of individual and mixed odorants. Odorized flows of air with precisely set concentrations were prepared by the evaporation of a known flux of odorant in a determined flow of air. The flux of odorant was delivered through a microsyringe operated by a calibrated micromotor into a heated vessel under a steady nitrogen flow. The odorant was vaporized and swept away by the nitrogen, and this primary flow was later diluted with humidified air to the desired concentration. Odorants can be presented one by one in olfactometers (see as a reference “Multidimensional visualization of physical and perceptual data leading to a creative approach in fragrance development”, C. Vuilleumier, M. van de Waal, H. Fontannaz, I. Cayeux and P. A. Rebetez, in Perfumer & Flavourist, 33, 55 (2008)); alternatively, a machine blending up to 12 flows of odorants in variable and adjustable proportions could be used. A sniffing outlet delivered a continuous and adjustable odorized air flow. The upper working limit was determined by the vapor pressure of the odorants at room temperature. The odorized flow was delivered at a temperature of 26° C., close to the temperature within the nose. The combination of air (540 l/h) and nitrogen (60 l/h) represented a total gas flow of 600 l/h with a relative humidity of 50%. The speed of injection of the solutions in the evaporation chamber was modulated and controlled for each subject and adjusted to obtain a medium perceived intensity (see above reference, for instance FIG. 4).
Standardized psychophysical procedures were used to determine olfactory detection thresholds (triangle testing) or perceived intensity, after a training period (see above reference).
A method was designed as an iterative process to obtain dose-response relationship and odor detection threshold of perfumery ingredients or malodorants with a minimum number of experiments (see FIG. 5 in the above reference).
FIG. 2 reports the radar plot of indole alone and indole+compound 1 obtained with a panel of 13 persons using a sensory protocol to evaluate the potential antagonists versus indole. The protocol involves two steps: • Step 1: the participants evaluated the tested ingredients and indole independently to adjust their individualized concentrations by changing the rate of injection (see above description and reference) to elicit a medium intensity perception for each chemical. These concentrations, corresponding to iso-intense levels, were applied in the second step of the process. The range of concentrations to be submitted to subjects was determined from dose-response relationships for the selected ingredients and indole. In the present experiment the molar ratio Compound 1/indole varied according to the individuals from about 1/1 to 10/1 (typical preferred individual range is between 2.5/1 and 4.5/1). • Step 2: Blind sensory evaluations were set; no information was disclosed to the participants on the submitted odorous stimuli. The subjects had to evaluate first indole alone at its individualized concentration and rate the following three descriptors on a linear labeled scale: • Pleasantness (From «Very unpleasant» to «Very pleasant») • Freshness (From «No Freshness» to «Very fresh») • Malodor character: Animal/Fecal/Tar (From «No . . . » to «Very . . . »)
The next submission, 30 seconds after the previous one to avoid odor adaptation, involved the simultaneous injection of indole and of the tested ingredient at individualized concentrations. The same descriptors were rated.

Row | Compound | Proportion of Indole OSNs [2] [%] | Freshness score [5] | Pleasantness score [5] | Animal/Fecal/Tar score [5] | Animal/Fecal/Tar Reduction [5] [percentage] | also measured
1 | CC1(C)CCc2ccc(CCC=O)cc21 [3-(3,3-dimethyl-2,3-dihydro-1h-inden-5-yl)propanal] | – | – | – | – | – | malodor reduction (reduction of the negative odor character) [1]: fail to produce such malodor reduction
2 | CC(C=O)Cc1ccc(C(C)(C)C)cc1 (stereo not drawn) [3-(4-tert-butylphenyl)-2-methylpropanal] | – | – | – | – | – | malodor reduction (reduction of the negative odor character) [1]: fail to produce such malodor reduction
3 | CC(C)(C)c1ccc(CCC=O)cc1 [3-(4-tert-butylphenyl)propanal] | – | – | – | – | – | malodor reduction (reduction of the negative odor character) [1]: fail to produce such malodor reduction
4 | Cc1ccc2c(c1)CC(C)(CO)C2 (stereo not drawn) [Compound 1, 2,5-dimethyl-2-indanemethanol] | 56 | 6.7 ± 0.9 | 7.8 ± 0.7 | 1.3 ± 0.5 | 81 | Proportion of Skatole OSNs [3]: 82%; Proportion of DTMS OSNs [4]: 69%
5 | COCC1(C)Cc2ccc(C)cc2C1 (stereo not drawn) [Compound 2, (2,5-dimethyl-2,3-dihydro-1H-inden-2-yl)methyl methyl ether] | 43 | 4.7 ± 1.3 | 3.9 ± 0.8 | 3.5 ± 1.5 | 50 | –
6 | CC1(CO)Cc2ccccc2C1 [Compound 3, (2-methyl-2,3-dihydro-1H-inden-2-yl)methanol] | 41 | 5.2 ± 1.5 | 6.0 ± 1.4 | 3.1 ± 1.3 | 55 | –
7 | Cc1ccc2c(c1)CC(CO)C2 (stereo not drawn) [Compound 4, (5-methyl-2,3-dihydro-1H-inden-2-yl)methanol] | 41 | 6.6 ± 1.5 | 7.2 ± 1.2 | 2.1 ± 1.1 | 70 | –
8 | CC(=O)OCC1(C)Cc2ccccc2C1 [Compound 5, (2-methyl-2,3-dihydro-1H-inden-2-yl)methyl acetate] | 77 | 5.2 ± 1.2 | 5.7 ± 1.1 | 2.7 ± 1.0 | 61 | Proportion of Skatole OSNs [3]: 87%; Proportion of DTMS OSNs [4]: 82%
9 | CC(=O)C1(C)Cc2ccc(C)cc2C1 (stereo not drawn) [Compound 6, 1-(2,5-dimethyl-2,3-dihydro-1H-inden-2-yl)ethanone] | 69 | 5.2 ± 1.6 | 5.8 ± 1.4 | 2.2 ± 1.2 | 68 | Proportion of Skatole OSNs [3]: 92%; Proportion of DTMS OSNs [4]: 94%
10 | Cc1ccc2c(c1)CCC(C)(CO)C2 (stereo not drawn) [Compound 7, (2,6-dimethyl-1,2,3,4-tetrahydro-2-naphthalenyl)methanol] | 54 | – | – | – | – | –
11 | CCc1ccc2c(c1)CC(C)(CO)C2 (stereo not drawn) [Compound 8, 5-ethyl-2-methyl-2-indanmethanol] | 30 | – | – | – | – | –
12 | Cc1ccc2c(c1C)CC(C)(CO)C2 (stereo not drawn) [Compound 9, (2,4,5-trimethyl-2,3-dihydro-1H-inden-2-yl)methanol] | 78 | – | – | – | – | –
13 | CC(=O)OCC1(C)Cc2ccc(C)cc2C1 (stereo not drawn) [Compound 10, (2,5-dimethyl-2-indanyl)methyl acetate] | 42 | – | – | – | – | –
14 | CCC1(CO)Cc2ccc(C)cc2C1 (stereo not drawn) [Compound 11, 2-ethyl-5-methyl-2-indanmethanol] | 35 | – | – | – | – | –
15 | CC(C)c1ccc2c(c1)CC(C)(CO)C2 (stereo not drawn) [Compound 12, 5-isopropyl-2-methyl-2-indanmethanol] | 57 | – | – | – | – | –
16 | CC1(CO)Cc2ccc(C(C)(C)C)cc2C1 (stereo not drawn) [Compound 13, 5-tert-butyl-2-methyl-2-indanmethanol] | 54 | – | – | – | – | –
17 | Cc1cc2c(cc1C)CC(C)(CO)C2 [Compound 14, 2,5,6-trimethyl-2-indanmethanol] | 20 | – | – | – | – | –
18 | Cc1cccc2c1CC(C)(CO)C2 (stereo not drawn) [Compound 15, 2,4-dimethyl-2-indanmethanol] | 17 | – | – | – | – | –
19 | Cc1cc(C)c2c(c1)CC(C)(CO)C2 (stereo not drawn) [Compound 16, (2,4,6-trimethyl-2,3-dihydro-1H-inden-2-yl)methanol] | 14 | 6.2 ± 1.6 | 6.4 ± 1.3 | 2.6 ± 1.4 | 62 | –
20 | COc1ccc2c(c1)CC(C)(CO)C2 (stereo not drawn) [Compound 17, (5-methoxy-2-methyl-2,3-dihydro-1H-inden-2-yl)methanol] | 23 | – | – | – | – | –
